From BindingDB's records for doi:10.1021/jm0701019 (Abbott Laboratories, 2007)

Target: T1, RAC-alpha serine/threonine-protein kinase [139-480,S378A,S381A,T450D,S473D] (Homo sapiens, UniProt P31749, S378A/S381A/S473D/T450D)
T1 construct: 139-480
Assay: Akt Kinase Assay
Details: not given
Description: The kinase assay uses His-Akt1 and a biotinylated peptide as substrate. The biotinylated peptides were immobilized on streptavidin-coated FLASH plates. After reaction, the 33P-phosphopeptide captured on the FLASH plates was measured with a TopCount Packard Instruments […] (Packard Instruments, Boston, MA).

T1 sequence (P31749 139-480 S378A/S381A/T450D/S473D): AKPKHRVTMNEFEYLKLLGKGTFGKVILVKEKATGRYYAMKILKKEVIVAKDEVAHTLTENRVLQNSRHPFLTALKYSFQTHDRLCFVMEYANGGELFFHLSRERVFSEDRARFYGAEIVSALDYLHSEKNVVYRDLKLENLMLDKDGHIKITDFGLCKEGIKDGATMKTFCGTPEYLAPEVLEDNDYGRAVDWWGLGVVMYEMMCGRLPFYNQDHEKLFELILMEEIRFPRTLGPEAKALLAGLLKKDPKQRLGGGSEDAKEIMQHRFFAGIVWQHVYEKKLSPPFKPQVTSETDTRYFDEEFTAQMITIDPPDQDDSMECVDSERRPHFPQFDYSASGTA

Point of comparison: `Cc1n[nH]c2ccc(-c3cncc(OC[C@@H](N)Cc4cc(C(F)(F)F)ccc4F)c3)cc12` [5-{5-[(2S)-2-amino-3-[2-fluoro-5-(trifluoromethyl)phenyl]propoxy]pyridin-3-yl}-3-methyl-1H-indazole], IC50 1.2 nM. Against it:
- Cc1n[nH]c2cnc(-c3cncc(OC[C@@H](N)Cc4cccc(C(F)(F)F)c4)c3)cc12 [3-[(2S)-2-amino-3-[3-(trifluoromethyl)phenyl]propoxy]-5-{3-methyl-1H-pyrazolo[3,4-c]pyridin-5-yl}pyridine] — 2-fold lower, 0.6 nM
- Cc1n[nH]c2ccc(-c3cncc(OC[C@@H](N)Cc4cccc(OCCN5CCOCC5)c4)c3)cc12 [4-(2-{3-[(2S)-2-amino-3-{[5-(3-methyl-1H-indazol-5-yl)pyridin-3-yl]oxy}propyl]phenoxy}ethyl)morpholine] — 630-fold higher, 751 nM
- Cc1n[nH]c2ccc(-c3cncc(OC[C@@H](N)Cc4ccc5c(c4)OC(F)(F)C(F)(F)O5)c3)cc12 [5-{5-[(2S)-2-amino-3-(2,2,3,3-tetrafluoro-2,3-dihydro-1,4-benzodioxin-6-yl)propoxy]pyridin-3-yl}-3-methyl-1H-indazole] — 11-fold higher, 13 nM
- Cc1n[nH]c2ccc(-c3cncc(OC[C@@H](N)Cc4cccc5c4OC(F)(F)O5)c3)cc12 [5-{5-[(2S)-2-amino-3-(2,2-difluoro-2H-1,3-benzodioxol-4-yl)propoxy]pyridin-3-yl}-3-methyl-1H-indazole] — 12-fold higher, 14 nM
- Cc1n[nH]c2ccc(-c3cncc(OC[C@@H](N)Cc4cccc(Cl)c4Cl)c3)cc12 [5-{5-[(2S)-2-amino-3-(2,3-dichlorophenyl)propoxy]pyridin-3-yl}-3-methyl-1H-indazole] — 4.7-fold higher, 5.6 nM
- Cc1n[nH]c2ccc(-c3cncc(OC[C@@H](N)Cc4ccccc4Cl)c3)cc12 [5-{5-[(2S)-2-amino-3-(2-chlorophenyl)propoxy]pyridin-3-yl}-3-methyl-1H-indazole] — 24-fold higher, 29 nM
- Cc1n[nH]c2ccc(-c3cncc(OC[C@@H](N)Cc4ccc5c(c4)OCO5)c3)cc12 [5-{5-[(2S)-2-amino-3-(2H-1,3-benzodioxol-5-yl)propoxy]pyridin-3-yl}-3-methyl-1H-indazole] — 35-fold higher, 42 nM
- Cc1ccc(C[C@H](N)COc2cncc(-c3ccc4[nH]nc(C)c4c3)c2)cc1F [5-{5-[(2S)-2-amino-3-(3-fluoro-4-methylphenyl)propoxy]pyridin-3-yl}-3-methyl-1H-indazole] — 2-fold higher, 2.4 nM
- Cc1n[nH]c2ccc(-c3cncc(OC[C@@H](N)Cc4cccc(I)c4)c3)cc12 [5-{5-[(2S)-2-amino-3-(3-iodophenyl)propoxy]pyridin-3-yl}-3-methyl-1H-indazole] — within 1.5-fold, 0.9 nM
- Cc1n[nH]c2ccc(-c3cncc(OC[C@@H](N)Cc4cccc(-c5ccccc5)c4)c3)cc12 [5-{5-[(2S)-2-amino-3-(3-phenylphenyl)propoxy]pyridin-3-yl}-3-methyl-1H-indazole] — 100-fold higher, 126 nM
- Cc1n[nH]c2ccc(-c3cncc(OC[C@@H](N)Cc4ccc(Br)cc4F)c3)cc12 [5-{5-[(2S)-2-amino-3-(4-bromo-2-fluorophenyl)propoxy]pyridin-3-yl}-3-methyl-1H-indazole] — 8.3-fold higher, 10 nM
- Cc1n[nH]c2ccc(-c3cncc(OC[C@@H](N)Cc4ccc(Br)c(F)c4)c3)cc12 [5-{5-[(2S)-2-amino-3-(4-bromo-3-fluorophenyl)propoxy]pyridin-3-yl}-3-methyl-1H-indazole] — within 1.5-fold, 1.3 nM
- Cc1cc(C[C@H](N)COc2cncc(-c3ccc4[nH]nc(C)c4c3)c2)ccc1Br [5-{5-[(2S)-2-amino-3-(4-bromo-3-methylphenyl)propoxy]pyridin-3-yl}-3-methyl-1H-indazole] — 2.1-fold higher, 2.5 nM
- Cc1n[nH]c2ccc(-c3cncc(OC[C@@H](N)Cc4ccc(Cl)c(F)c4)c3)cc12 [5-{5-[(2S)-2-amino-3-(4-chloro-3-fluorophenyl)propoxy]pyridin-3-yl}-3-methyl-1H-indazole] — 3-fold higher, 3.6 nM
- Cc1cc(F)ccc1C[C@H](N)COc1cncc(-c2ccc3[nH]nc(C)c3c2)c1 [5-{5-[(2S)-2-amino-3-(4-fluoro-2-methylphenyl)propoxy]pyridin-3-yl}-3-methyl-1H-indazole] — 5-fold higher, 6 nM
- Cc1ccc(F)cc1C[C@H](N)COc1cncc(-c2ccc3[nH]nc(C)c3c2)c1 [5-{5-[(2S)-2-amino-3-(5-fluoro-2-methylphenyl)propoxy]pyridin-3-yl}-3-methyl-1H-indazole] — 3.2-fold higher, 3.9 nM
- Cc1n[nH]c2ccc(-c3cncc(OC[C@@H](N)Cc4ccccc4OC(F)(F)F)c3)cc12 [5-{5-[(2S)-2-amino-3-[2-(trifluoromethoxy)phenyl]propoxy]pyridin-3-yl}-3-methyl-1H-indazole] — 13-fold higher, 15.3 nM
- Cc1n[nH]c2ccc(-c3cncc(OC[C@@H](N)Cc4ccc(C(F)(F)F)cc4F)c3)cc12 [5-{5-[(2S)-2-amino-3-[2-fluoro-4-(trifluoromethyl)phenyl]propoxy]pyridin-3-yl}-3-methyl-1H-indazole] — 10-fold higher, 12.1 nM
- Cc1n[nH]c2ccc(-c3cncc(OC[C@@H](N)Cc4cc(C(F)(F)F)cc(C(F)(F)F)c4)c3)cc12 [5-{5-[(2S)-2-amino-3-[3,5-bis(trifluoromethyl)phenyl]propoxy]pyridin-3-yl}-3-methyl-1H-indazole] — 48-fold higher, 57 nM
- Cc1n[nH]c2ccc(-c3cncc(OC[C@@H](N)Cc4cccc(OCCN)c4)c3)cc12 [5-{5-[(2S)-2-amino-3-[3-(2-aminoethoxy)phenyl]propoxy]pyridin-3-yl}-3-methyl-1H-indazole] — 39-fold higher, 47 nM
- Cc1n[nH]c2ccc(-c3cncc(OC[C@@H](N)Cc4cccc(OCC5CCNCC5)c4)c3)cc12 [5-{5-[(2S)-2-amino-3-[3-(piperidin-4-ylmethoxy)phenyl]propoxy]pyridin-3-yl}-3-methyl-1H-indazole] — 5.7-fold higher, 6.8 nM
- Cc1n[nH]c2ccc(-c3cncc(OC[C@@H](N)Cc4ccc(C(F)(F)F)c(F)c4)c3)cc12 [5-{5-[(2S)-2-amino-3-[3-fluoro-4-(trifluoromethyl)phenyl]propoxy]pyridin-3-yl}-3-methyl-1H-indazole] — 2.6-fold higher, 3.1 nM
- Cc1n[nH]c2ccc(-c3cncc(OC[C@@H](N)Cc4ccc(F)c(C(F)(F)F)c4)c3)cc12 [5-{5-[(2S)-2-amino-3-[4-fluoro-3-(trifluoromethyl)phenyl]propoxy]pyridin-3-yl}-3-methyl-1H-indazole] — 1.5-fold higher, 1.8 nM
- Cc1n[nH]c2ccc(-c3cncc(OC[C@@H](N)Cc4cccc(OCCC5CCNCC5)c4)c3)cc12 [5-{5-[(2S)-2-amino-3-{3-[2-(piperidin-4-yl)ethoxy]phenyl}propoxy]pyridin-3-yl}-3-methyl-1H-indazole] — 240-fold higher, 290 nM
- Cc1n[nH]c2ccc(-c3cncc(OC[C@@H](N)Cc4cccc(OCC5CCN(C)CC5)c4)c3)cc12 [5-{5-[(2S)-2-amino-3-{3-[(1-methylpiperidin-4-yl)methoxy]phenyl}propoxy]pyridin-3-yl}-3-methyl-1H-indazole] — 65-fold higher, 78 nM
- Cc1n[nH]c2cnc(-c3cncc(OC[C@@H](N)Cc4cccc(F)c4F)c3)cc12 [(2S)-1-(2,3-difluorophenyl)-3-{[5-(3-methyl-1H-pyrazolo[3,4-c]pyridin-5-yl)pyridin-3-yl]oxy}propan-2-amine] — 4.2-fold higher, 5 nM
- Cc1cc(C)c(C[C@H](N)COc2cncc(-c3ccc4[nH]nc(C)c4c3)c2)c(C)c1 [(2S)-1-(2,4,6-trimethylphenyl)-3-{[5-(3-methyl-1H-indazol-5-yl)pyridin-3-yl]oxy}propan-2-amine] — 32-fold higher, 39 nM
- Cc1n[nH]c2ccc(-c3cncc(OC[C@@H](N)Cc4c(F)cc(F)cc4Br)c3)cc12 [(2S)-1-(2-bromo-4,6-difluorophenyl)-3-{[5-(3-methyl-1H-indazol-5-yl)pyridin-3-yl]oxy}propan-2-amine] — 41-fold higher, 49 nM
- Cc1n[nH]c2ccc(-c3cncc(OC[C@@H](N)Cc4ccccc4Br)c3)cc12 [(2S)-1-(2-bromophenyl)-3-{[5-(3-methyl-1H-indazol-5-yl)pyridin-3-yl]oxy}propan-2-amine] — 19-fold higher, 23 nM
- Cc1n[nH]c2ccc(-c3cncc(OC[C@@H](N)Cc4ccc(Cl)c(Cl)c4)c3)cc12 [(2S)-1-(3,4-dichlorophenyl)-3-{[5-(3-methyl-1H-indazol-5-yl)pyridin-3-yl]oxy}propan-2-amine] — 1.5-fold higher, 1.8 nM
- Cc1n[nH]c2ccc(-c3cncc(OC[C@@H](N)Cc4cc(Cl)cc(Cl)c4)c3)cc12 [(2S)-1-(3,5-dichlorophenyl)-3-{[5-(3-methyl-1H-indazol-5-yl)pyridin-3-yl]oxy}propan-2-amine] — 17-fold higher, 20.7 nM

Same assay, conditions: pH 7.5; 22 °C

Point of comparison: `Cc1n[nH]c2ccc(-c3cncc(OC[C@@H](N)Cc4ccc(F)c(F)c4F)c3)cc12` [5-{5-[(2S)-2-amino-3-(2,3,4-trifluorophenyl)propoxy]pyridin-3-yl}-3-methyl-1H-indazole], IC50 12 nM. Against it:
- N[C@H](COc1cncc(-c2ccc3c(c2)CC(=O)N3)c1)Cc1ccccc1 [5-(5-{[(2S)-2-amino-3-phenylpropyl]oxy}pyridin-3-yl)-1,3-dihydro-2H-indol-2-one] — 220-fold higher, 2650 nM
- Cc1n[nH]c2ccc(-c3cncc(OC[C@@H](N)Cc4cccc(F)c4F)c3)cc12 [5-{5-[(2S)-2-amino-3-(2,3-difluorophenyl)propoxy]pyridin-3-yl}-3-methyl-1H-indazole] — within 1.5-fold, 8.5 nM
- Cc1n[nH]c2ccc(-c3cncc(OC[C@@H](N)Cc4c(F)cccc4F)c3)cc12 [5-{5-[(2S)-2-amino-3-(2,6-difluorophenyl)propoxy]pyridin-3-yl}-3-methyl-1H-indazole] — 5.5-fold higher, 65.5 nM
- Cc1n[nH]c2ccc(-c3cncc(OC[C@@H](N)Cc4cccc(F)c4)c3)cc12 [5-{5-[(2S)-2-amino-3-(3-fluorophenyl)propoxy]pyridin-3-yl}-3-methyl-1H-indazole] — within 1.5-fold, 8.4 nM
- Cc1n[nH]c2ccc(-c3cncc(OC[C@@H](N)Cc4c(F)cc(F)cc4F)c3)cc12 [(2S)-1-(2,4,6-trifluorophenyl)-3-{[5-(3-methyl-1H-indazol-5-yl)pyridin-3-yl]oxy}propan-2-amine] — 2.6-fold higher, 31 nM
- Cc1n[nH]c2ccc(-c3cncc(OC[C@@H](N)Cc4ccc(F)cc4F)c3)cc12 [(2S)-1-(2,4-difluorophenyl)-3-{[5-(3-methyl-1H-indazol-5-yl)pyridin-3-yl]oxy}propan-2-amine] — 1.8-fold higher, 21 nM
